Data: patent US8258104B2, “Method and composition for treating allergic diseases” (Wholesome Biopharm Pty Ltd., priority 2006, dated 2012)

Assays:
Assay type in all cases: in vivo, BALB/c mice
OVA-sensitized mice [1] = experiment: Cellular composition of bronchoalveolar lavage (BAL) fluid (airway eosinophilic inflammation); conditions: ribavirin 10 or 30 mg/ml intranasal
Procedure: (§1) Female BALB/c mice were obtained and maintained in the Animal Center of the College of Medicine of National Taiwan University (Taiwan, R.O.C.). Animals were used between 6 and 10 weeks of age and were age matched within each experiment. Animal experiment protocol was approved by Animal Committee of the College of Medicine of National Taiwan University (Taiwan, R.O.C.).
(§2) Mice were randomly divided into 4 groups and sensitized by an intraperitoneal injection of OVA (10 μg), which were complexed with aluminum potassium sulfate (alum, 2 mg) on day 0. All mice were boosted with another shot of OVA (10 μg) on day 14 and day 28, respectively. The mice in the negative control group were injected with phosphate buffer solution (PBS). As to the mice in the rest three groups, each group received 20 μl of 0, 10 or 30 mg/ml ribavirin together with intranasal challenge of 0.05 mg of OVA on days 38-40, respectively. AHR for mice in each group was measured on day 41, and all mice were bled and sacrificed on day 42, when the experiment ended. FIG. 1 illustrated the timeline of the above-identified OVA protocol used in this study.
Whether ribavirin could alleviate airway inflammation in OVA-sensitized mice was determined by analyzing the cellular composition in the bronchoalveolar lavage (BAL) fluid of the sensitized mice 48 hours a the last challenge. In brief, all groups of OVA sensitized mice were bled from the retro-orbital venous plexus and sacrificed. The lung was immediately lavaged via the trachea cannula with 3×1 ml of HBSS, free of ionized calcium and magnesium. The lavage fluid was centrifuged at 400 xg for 10 minutes at 4° C. After washing, the cells were resuspended in 1 ml HBSS and total cells counts were determined by use of a hemocytometer. Cytocentrifuged preparations were stained with Liu's stain for different cell counts. A minimum of 200 cells was counted and classified as macrophages, lymphocytes, neutrophils and eosinophils, based on standard morphological criteria. Results were illustrated in FIG. 3. […] On the contrary, treatment of ribavirin (10 or 30 mg/ml) decreased not only the total cell counts (FIG. 3A), but also the number of respective cell types including monocytes, neutrophils, and eosinophiles (FIG. 3B).

OVA-sensitized mice [2] = experiment: Airway hyper-responsiveness (AHR) to aerosolized methacholine, whole-body plethysmography (Penh); conditions: intranasal ribavirin 10 or 30 mg/ml, Mch 0-50 mg/ml, FIG. 2
Procedure: as §1
Mice were randomly divided into 4 groups and sensitized by an intraperitoneal injection of OVA (10 μg), which were complexed with aluminum potassium sulfate (alum, 2 mg) on day 0. All mice were boosted with another shot of OVA (10 μg) on day 14 and day 28, respectively. The mice in the negative control group were injected with phosphate buffer solution (PBS). […] AHR for mice in each group was measured on day 41, and all mice were bled and sacrificed on day 42, when the experiment ended. […]
The effect of ribavirin on airway responsiveness to aerosolized methacholine (Mch) in OVA-sensitized mice were assessed by the following procedures. […] Each reading was taken for 3 minutes and averaged for the entire time course after nebulization. Calculated Data were expressed as the fold increases above saline challenge baseline values using the dimensionless parameter Penh as described. […]

OVA-sensitized mice [3] = experiment: Lung tissue histology (hematoxylin and eosin, light microscope); conditions: ribavirin 30 and 10 mg/ml; FIG. 4
Procedure: as §1, §2
After the lavage, the lungs were immediately removed and fixed in 10% neutral-buffered formalin, routinely processed, and embedded in paraffin wax. […]

OVA-sensitized mice [4] = experiment: Chemokine/cytokine levels in BAL fluid by ELISA
Procedure: as §1, §2
OVA-sensitized mice were lavage according to the procedure described above, and the levels of chemokines were assayed by an ELISA kit (R&D) in accordance with the manufacturer's instructions. Take the measurement of eotaxin as an example, the BAL fluid was collected and added to wells precoated with anti-eotaxin antibodies over night at 4° C. After incubation for 2 hours, the plates were washed and biotin-conjugated antibodies were added. After two more hours at room temperature, HRP-avidin was then added, and the OD (at 450 nm) values were converted to concentrations of eotaxin in the BALF. The level of other chemokines including KC, IL-4 and INF-γ may be measured according to similar procedures. Results were illustrated in FIG. 5.

NC(=O)c1ncn([C@@H]2O[C@H](CO)[C@@H](O)[C@H]2O)n1 [ribavirin]
total cell counts in BAL fluid (OVA-sensitized mice [1]; 48 hours after last challenge, FIG. 3A): decreased | number of eosinophils in BAL fluid (OVA-sensitized mice [1]; FIG. 3B): decreased | number of monocytes in BAL fluid (OVA-sensitized mice [1]; FIG. 3B): decreased | number of neutrophils in BAL fluid (OVA-sensitized mice [1]; FIG. 3B): decreased | airway responsiveness to Mch (Penh) (OVA-sensitized mice [2]): inhibited the increase in airway responsiveness to Mch | infiltration of cells in the lung (OVA-sensitized mice [3]): efficiently inhibit the infiltration of the cells | pathological damage within the lung (OVA-sensitized mice [3]): reduce the pathological damage within the lung | level of IF-γ in BAL fluid (OVA-sensitized mice [4]; FIG. 5a): not affected | level of IL-4 in BAL fluid (OVA-sensitized mice [4]; FIG. 5b): not affected | level of KC in BAL fluid (OVA-sensitized mice [4]; FIG. 5c): significant reduced | level of eotaxin in BAL fluid (OVA-sensitized mice [4]; FIG. 5d): significant reduced
